The text below walks through data of article PMC13065503.

One data set is described as follows: Cys/Cys side-chain stapling of bis-cysteine Omomyc mutants by S-alkylation with bis(bromomethyl)arenes (1.25 eq): 4,4'-bis(bromomethyl)biphenyl for i,i+7 or 1,3-bis(bromomethyl)benzene (with 2 eq TCEP) for i,i+4; pH 8. The following applies: the molecule shown is the open-chain precursor; 22-membered ring; 100 mM aq NH4HCO3 pH 8 / 25% MeCN; 0.1 mM.
“H-AMADIGSMAC(SH)EENC(SH)KRRTHNVLERQRRNELKRSFFALRDQIPELENNEKAPKVVILKKATAYILSVQAETQKLISEIDLLRKQNEQLKHKLEQLRNSAA-OH” gave a ring closure, isolated yield of 38%.
“H-AMADIGSMATEENC(SH)KRRC(SH)HNVLERQRRNELKRSFFALRDQIPELENNEKAPKVVILKKATAYILSVQAETQKLISEIDLLRKQNEQLKHKLEQLRNSAA-OH”: the ring closure, isolated yield amounted to 26%.

Staying with this data set, now noted: the molecule shown is the open-chain precursor; 36-membered ring; 100 mM aq NH4HCO3 pH 8 / 25% MeCN; 0.1 mM.
“H-AMADIGSMATEENC(SH)KRRTHNC(SH)LERQRRNELKRSFFALRDQIPELENNEKAPKVVILKKATAYILSVQAETQKLISEIDLLRKQNEQLKHKLEQLRNSAA-OH”: the ring closure, isolated yield was 67%.
“H-AMADIGSMATEENVKRRTHNC(SH)LERQRRC(SH)ELKRSFFALRDQIPELENNEKAPKVVILKKATAYILSVQAETQKLISEIDLLRKQNEQLKHKLEQLRNSAA-OH”: the ring closure, isolated yield worked out at 69%.
Substance “H-AMADIGSMATEENVKRRTHNC(SH)LERQRRC(SH)ELKRSFFALRDQIPELENNEKAPKVVILKKATAYILSVQAETQKLISEIDLLRKQNEQLKHKLEQLRNSAAPAAKRVKLD-OH” returned a ring closure, isolated yield of 60%.
Same read-out and setting: then “H-AMADIGSPAAKRVKLDMATEENVKRRTHNC(SH)LERQRRC(SH)ELKRSFFALRDQIPELENNEKAPKVVILKKATAYILSVQAETQKLISEIDLLRKQNEQLKHKLEQLRNSAA-OH”, with 46%.
